This experiment is described as follows: Binding affinity towards Alpha1D dog adrenergic receptors, using [125I]-HEAT as radioligand.

For `C[C@@H]1OC(=O)N(C(=O)NCCCN2CCC(c3ccc(F)cc3)CC2)[C@H]1c1ccc(F)c(F)c1` [4-(3,4-Difluoro-phenyl)-5-methyl-2-oxo-oxazolidine-3-carboxylic acid {3-[4-(4-fluoro-phenyl)-piperidin-1-yl]-propyl}-amide], the Ki is 133 nM.

For orientation: Ki means the equilibrium dissociation constant of an inhibitor or competing ligand from its target. A lower Ki goes with a stronger hold on the target.

These data come from BindingDB's records for doi:10.1021/jm000085e (Synaptic Pharmaceutical, 2000).
